# Measured values published in patent US12479895B2, “C-terminal CDNF and MANF fragments, pharmaceutical compositions comprising same and uses thereof” (MyNeuroCure Oy, priority 2018, dated 2025).
# How the values were obtained:
# ER stressed SCG neurons = assay: Survival of tunicamycin-treated (ER stressed) SCG sympathetic neurons after microinjection; format: cell-based, mice; details: for survived neurons as % compared to neurons grown in the presence of NGF: microinjected into cytoplasm, CDNF (400); for Fold change of survived neurons compared to neurons injected with PBS: data of Table 1 divided by values of PBS
# Method in brief: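 Newborn mouse SCG neurons grown 5-6 days with 30 ng/ml NGF, then microinjected with CDNF (FL or C-terminal) plasmids (10 ng/ul, EGFP reporter) or proteins (200 ng/ul, Dextran Texas Red). Tunicamycin (2 μM) added next day. Fluorescent survivors counted blindly after 3 days as % of initial; compared with vector or PBS (ANOVA/Dunnett).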
# dopamine neurons = assay: Survival of TH-positive dopamine neurons in dissociated midbrain floor cultures; format: cell-based, mouse; details: for survived neurons as % compared to neurons grown in the presence of GDNF / protection of dopaminergic neurons in culture (result in words): 5 days; for protection of dopaminergic neurons in culture (result in words): added to the culture medium, TH-positive neurons counted; for Fold change of survived neurons compared to neurons grown without growth factors: data of Table 3 divided by values of no factor
# Method in brief: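 Dissociated E13.5 NMRI mouse midbrain floor neurons grown five days in DMEM/F12 with N2, with polypeptides at a range of concentrations, GDNF (100 ng/ml), or nothing. TH-immunopositive neurons were counted by imaging. Values are a percentage of GDNF-maintained TH-positive neurons, as mean ± SEM from at least three independent cultures.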
# rat 6-OHDA model of PD = assay: Neurorestoration study in 6-OHDA model of PD in rats; format: in vivo
# E14 dopamine neurons = assay: Internalization experiment on dopaminergic neurons; format: cell-based, Mouse; details: 30,000 cpm of iodinated protein, 37° C., 2 hr, acid wash
# Experimental: Mouse E13.5 dopamine neurons grown on the 24 well plate in culture were incubated with 30,000 cpm of iodinated CDNF or C-CDNF per well at 37° C. 2 hr. The cells were transferred to ice and washed once with 0.5 ml of the ice cold media. Then cells were transferred to Eppendorf tubes and washed at 4° C. once with 0.2M acetic acid, 0.5M NaCl, pH 2.8. After centrifugation at 1000 g for 10 min cells were dissolved in 0.5 ml of 0.5 N NaOH and counted on the gamma counter.
# [1] = test system: mouse beta cell proliferation; assay: Beta cell proliferation assay; format: cell-based; details: mouse islets cultured in vitro for 5 days
# Experimental: Islets from female, virgin 8 weeks old C57bl6Rcc mice were isolated. Islets were recovered o/n in growth medium and the next day equal numbers of islets/well (70/well) were treated for 5 days with placental lactogen (PL 500 ng/ml), C-MANF, or MANF. Half of the medium was changed daily to fresh medium with growth factors. Edu, a nucleoside analog alternatively to BrdU (Click-iT® Edu proliferation kit, Invitrogen) was added 48 hrs prior to islet harvesting. Islets were broken with trypsin and centrifuged onto glass slides in cytocentrifuge. Cells were fixed after cytospins and proliferating cells stained with Click-iT AlexaFluor azide color reagent, followed by insulin staining (guinea-pig 1:200, Abcam, Cambridge, UK) o/n at +4° C. to detect beta cells. Cells were washed and stained with secondary antibodies conjugated with Alexa Fluor® 488 (1:400, Molecular Probes, Life Technologies, CA, USA). […] Twelve images (10× magnification) were acquired with Fluorescence Zeiss Axiolmager M2 482 epifluorescence microscope equipped with 40×/Plan-Apochromat/0.95 Corr M27 and 63×/Plan-Apochromat/1.40 Oil/M27 and 483 AxioCam HRm camera using AxioVision4 software and analysed by Image Pro Plus software (Media Cybernetics, Bethesda, MD, USA) to quantify number of DAPI-positive nuclei. The relative numbers of proliferating beta cells were quantified and compared to wells of three to five repeats/treatment.
# [2] = rat, in vivo, sc
# Experimental: CDNF, C-CDNF and C-MANF were iodinated with ^125I-Na using the lactoperoxidase method. The protein in question was dissolved in 30 μl of 0.25 M phosphate buffer, pH 7.5, and mixed with ^125I-Na (1 mCi/2.8 μl; 1 mCi=37 mBq; GE Healthcare). The reaction was started by adding lactoperoxidase 10 μl of 50 μg/ml and 0.05% H2O2. The mixture was incubated at room temperature for 20 min and the reaction was stopped by adding 3 volumes of 0.1 M phosphate buffer, pH 7.5, containing 0.1 M NaI, 0.42 M NaCl, and then 25 μl of 2.5% BSA was added. Free iodine and iodinated protein were separated by gel filtration on Sephadex G-25 columns (PM10; GE Healthcare). For column equilibrium and elution, 0.1 M phosphate buffer, pH 7.5, with 1% BSA was used. The iodinated growth factors were sometimes concentrated by using YM-10 Centricon columns (Millipore). The specific activity of ^125I-labeled CDNF, C-CDNF and C-MANF was measured on the Wizard 3 1480 Automatic Gamma Counter (Perkin Elmer, Wallac) and was about 10^8 cpm/μg protein. The labelled protein were kept at 4° C. and used within 3 weeks after labelling.
# ^125I-CDNF, ^125I C-CDNF or ^125I C-MANF (all proteins at 10^6 cpm in 10 μl) were injected subcutaneously to adult male Wistar rats. […] Radioactivity was analyzed in different brain regions by gamma counter. […] The differences between groups were analyzed ANOVA followed by Tukey-Kramers post hoc test.
molecule,measurement,setting,value
TLDLASVDLRKMRVAELKQILHSWGEECRACAE (listed as Homo sapiens) [pep15],survived neurons as % compared to neurons grown in the presence of NGF,"ER stressed SCG neurons; Table 1B (FIG. 16), exp1, tunicamycin 2 μM, counted after 3 days",70.17 % NGF
same,survived neurons as % compared to neurons grown in the presence of NGF,"ER stressed SCG neurons; Table 1B (FIG. 16), exp2, tunicamycin 2 μM, counted after 3 days",61.81 % NGF
same,survived neurons as % compared to neurons grown in the presence of NGF,"ER stressed SCG neurons; Table 1B (FIG. 16), exp3, tunicamycin 2 μM, counted after 3 days",71.42 % NGF
same,rescue of ER stressed SCG neurons (result in words),"ER stressed SCG neurons; protein or peptide microinjected into the cytoplasm, tunicamycin 2 μM, living fluorescent neurons counted after 3 days",rescue
same,survived neurons as % compared to neurons grown in the presence of GDNF,"dopamine neurons; Table 3B (FIG. 17), AVG, 1 ng/ml",73.72 % GDNF
same,survived neurons as % compared to neurons grown in the presence of GDNF,"dopamine neurons; Table 3B (FIG. 17), AVG, 10 ng/ml",87.03 % GDNF
same,survived neurons as % compared to neurons grown in the presence of GDNF,"dopamine neurons; Table 3B (FIG. 17), AVG, 100 ng/ml",93.53 % GDNF
same,survived neurons as % compared to neurons grown in the presence of GDNF,"dopamine neurons; Table 3B (FIG. 17), AVG, 1000 ng/ml",86.15 % GDNF
same,protection of dopaminergic neurons in culture (result in words),dopamine neurons,best protective effect
same,protection against 6-OHDA-induced impairment in motor imbalance (amphetamine-induced rotational behavior),"rat 6-OHDA model of PD; subcutaneous injections 50 μg twice a week for 4 weeks starting two weeks post-lesion, p<0.001 vs vehicle",effective
"CKGC [MANF4, reference compound]",efficacy on amphetamine-induced rotations,"rat 6-OHDA model of PD; infused into the striatum starting 2 weeks after 6-OHDA lesioning, rotations up to 12 weeks post lesioning",not effective
^125I-CDNF: CDNF iodinated with 125I-Na using the lactoperoxidase method,internalization into dopamine neurons (radioactivity inside the cells),E14 dopamine neurons,but not ^125I-CDNF is efficiently internalized
TLDLASVDLRKMRVAELKQILHSWGEECRACAEKTDYVNLIQELAPKYA (listed as Homo sapiens) [pep4],survived neurons as % compared to neurons grown in the presence of NGF,"ER stressed SCG neurons; Table 1A (FIG. 14), AVG of exp1-2, tunicamycin 2 μM",79.15 % NGF
same,survived neurons as % compared to neurons grown in the presence of NGF,"ER stressed SCG neurons; Table 1A (FIG. 14), exp1, tunicamycin 2 μM, counted after 3 days",81.25 % NGF
same,survived neurons as % compared to neurons grown in the presence of NGF,"ER stressed SCG neurons; Table 1A (FIG. 14), exp2, tunicamycin 2 μM, counted after 3 days",77.05 % NGF
same,Fold change of survived neurons compared to neurons injected with PBS,"ER stressed SCG neurons; Table 2, AVG",2.16 Fold to PBS
same,Fold change of survived neurons compared to neurons injected with PBS,"ER stressed SCG neurons; Table 2, exp1",2.37 Fold to PBS
same,Fold change of survived neurons compared to neurons injected with PBS,"ER stressed SCG neurons; Table 2, exp2",1.94 Fold to PBS
same,survived neurons as % compared to neurons grown in the presence of GDNF,"dopamine neurons; Table 3A (FIG. 15), AVG, 1 ng/ml",69.14 % GDNF
same,survived neurons as % compared to neurons grown in the presence of GDNF,"dopamine neurons; Table 3A (FIG. 15), AVG, 10 ng/ml",70.54 % GDNF
same,survived neurons as % compared to neurons grown in the presence of GDNF,"dopamine neurons; Table 3A (FIG. 15), AVG, 100 ng/ml",70.14 % GDNF
same,survived neurons as % compared to neurons grown in the presence of GDNF,"dopamine neurons; Table 3A (FIG. 15), AVG, 1000 ng/ml",76.27 % GDNF
same,survived neurons as % compared to neurons grown in the presence of GDNF,"dopamine neurons; Table 3A (FIG. 15), exp1, 1 ng/ml",61.71 % GDNF
same,survived neurons as % compared to neurons grown in the presence of GDNF,"dopamine neurons; Table 3A (FIG. 15), exp1, 10 ng/ml",64.44 % GDNF
same,survived neurons as % compared to neurons grown in the presence of GDNF,"dopamine neurons; Table 3A (FIG. 15), exp1, 100 ng/ml",69.02 % GDNF
same,survived neurons as % compared to neurons grown in the presence of GDNF,"dopamine neurons; Table 3A (FIG. 15), exp1, 1000 ng/ml",68.35 % GDNF
same,survived neurons as % compared to neurons grown in the presence of GDNF,"dopamine neurons; Table 3A (FIG. 15), exp2, 1 ng/ml",79.99 % GDNF
same,survived neurons as % compared to neurons grown in the presence of GDNF,"dopamine neurons; Table 3A (FIG. 15), exp2, 10 ng/ml",81.47 % GDNF
same,survived neurons as % compared to neurons grown in the presence of GDNF,"dopamine neurons; Table 3A (FIG. 15), exp2, 100 ng/ml",73.24 % GDNF
same,survived neurons as % compared to neurons grown in the presence of GDNF,"dopamine neurons; Table 3A (FIG. 15), exp2, 1000 ng/ml",83.39 % GDNF
same,survived neurons as % compared to neurons grown in the presence of GDNF,"dopamine neurons; Table 3A (FIG. 15), exp3, 1 ng/ml",65.71 % GDNF
same,survived neurons as % compared to neurons grown in the presence of GDNF,"dopamine neurons; Table 3A (FIG. 15), exp3, 10 ng/ml",65.71 % GDNF
same,survived neurons as % compared to neurons grown in the presence of GDNF,"dopamine neurons; Table 3A (FIG. 15), exp3, 100 ng/ml",68.14 % GDNF
same,survived neurons as % compared to neurons grown in the presence of GDNF,"dopamine neurons; Table 3A (FIG. 15), exp3, 1000 ng/ml",77.07 % GDNF
same,Fold change of survived neurons compared to neurons grown without growth factors,"dopamine neurons; Table 4, AVG, 1 ng/ml",1.12 fold
same,Fold change of survived neurons compared to neurons grown without growth factors,"dopamine neurons; Table 4, AVG, 10 ng/ml",1.14 fold
same,Fold change of survived neurons compared to neurons grown without growth factors,"dopamine neurons; Table 4, AVG, 100 ng/ml",1.14 fold
same,Fold change of survived neurons compared to neurons grown without growth factors,"dopamine neurons; Table 4, AVG, 1000 ng/ml",1.24 fold
same,Fold change of survived neurons compared to neurons grown without growth factors,"dopamine neurons; Table 4, exp1, 1 ng/ml",1.08 fold
same,Fold change of survived neurons compared to neurons grown without growth factors,"dopamine neurons; Table 4, exp1, 10 ng/ml",1.13 fold
same,Fold change of survived neurons compared to neurons grown without growth factors,"dopamine neurons; Table 4, exp1, 100 ng/ml",1.21 fold
same,Fold change of survived neurons compared to neurons grown without growth factors,"dopamine neurons; Table 4, exp1, 1000 ng/ml",1.20 fold
same,Fold change of survived neurons compared to neurons grown without growth factors,"dopamine neurons; Table 4, exp2, 1 ng/ml",1.27 fold
same,Fold change of survived neurons compared to neurons grown without growth factors,"dopamine neurons; Table 4, exp2, 10 ng/ml",1.29 fold
same,Fold change of survived neurons compared to neurons grown without growth factors,"dopamine neurons; Table 4, exp2, 100 ng/ml",1.16 fold
same,Fold change of survived neurons compared to neurons grown without growth factors,"dopamine neurons; Table 4, exp2, 1000 ng/ml",1.32 fold
same,Fold change of survived neurons compared to neurons grown without growth factors,"dopamine neurons; Table 4, exp3, 1 ng/ml",1.01 fold
same,Fold change of survived neurons compared to neurons grown without growth factors,"dopamine neurons; Table 4, exp3, 10 ng/ml",1.01 fold
same,Fold change of survived neurons compared to neurons grown without growth factors,"dopamine neurons; Table 4, exp3, 100 ng/ml",1.05 fold
same,Fold change of survived neurons compared to neurons grown without growth factors,"dopamine neurons; Table 4, exp3, 1000 ng/ml",1.19 fold
"KYDKQIDLSTVDLKKLRVKELKKILDDWGETCKGCAEKSDYIRKINELMPKYAPKAASARTDL (protein, listed as Homo sapiens) KYDKQIDLSTVDLKKLRVKELKKILDDWGETCKGCAEKSDYIRKINELMPKYAPKAASARTDL",protection of dopaminergic neurons in culture (result in words),dopamine neurons,protects
same,protection of dopaminergic neurons in culture (result in words),dopamine neurons; listed as C-terminal MANF fragment,potently protected
same,mouse beta cell proliferation (incorporation of Click EdU),[1],stimulates
same,blood-brain-barrier penetration,[2],capable of penetrating
